ChEMBL document CHEMBL3885881, “DrugMatrix”

Species on record: Rattus norvegicus
Assay: DrugMatrix - Regimen: Daily Repeat
Format: toxicity, organism-based, Sprague-Dawley
Set-up: regimen Daily Repeat, gender Male, age 6-8 weeks
Settings: in vivo, po, route oral GAVAGE, vehicle .5 % CMC; for ABSOLUTE BASOPHIL / ABSOLUTE EOSINOPHIL / ABSOLUTE LYMPHOCYTE / ABSOLUTE MONOCYTE / ABSOLUTE SEGMENTED NEUTROPHIL / BASOPHIL / EOSINOPHIL / ERYTHROCYTE COUNT / HEMATOCRIT / HEMOGLOBIN / LEUKOCYTE COUNT / LYMPHOCYTE / MEAN CORPUSCULAR HEMOGLOBIN / MEAN CORPUSCULAR HEMOGLOBIN CONCENTRATION / MEAN CORPUSCULAR VOLUME / MONOCYTE / NEUTROPHIL / NUCLEATED RED BLOOD CELLS / PLATELET COUNT: tissue Blood; for ALANINE AMINOTRANSFERASE / ALBUMIN / ALKALINE PHOSPHATASE / ASPARTATE AMINOTRANSFERASE / BLOOD UREA NITROGEN / CARBON DIOXIDE / CHLORIDE / CHOLESTEROL / CREATINE PHOSPHOKINASE / CREATININE / GLUCOSE / LACTATE DEHYDROGENASE / LIPASE / PHOSPHORUS / POTASSIUM / SODIUM / TOTAL BILIRUBIN / TOTAL PROTEIN: tissue Plasma
[1] = 0 mg/kg, 72 h, dose level Control, time 3 day
[2] = 0 mg/kg, 120 h, dose level Control, time 5 day
[3] = 25 mg/kg, 72 h, dose level Low, time 3 day

SMILES: COc1cc(/C=C/C(=O)O)ccc1O [FERULATE]
- ABSOLUTE BASOPHIL [1]: 0 CELLS/uL
- ABSOLUTE EOSINOPHIL [1]: 284.5 CELLS/uL
- ABSOLUTE LYMPHOCYTE [1]: 11670.5 CELLS/uL
- ABSOLUTE MONOCYTE [1]: 420.83 CELLS/uL
- ABSOLUTE SEGMENTED NEUTROPHIL [1]: 1024.17 CELLS/uL
- BASOPHIL [1]: 0%
- EOSINOPHIL [1]: 1.67%
- ERYTHROCYTE COUNT [1]: 5.38 x10E6/uL
- HEMATOCRIT [1]: 34.05%
- HEMOGLOBIN [1]: 12.75 G/DL
- LEUKOCYTE COUNT [1]: 13.4 x10E3/uL
- LYMPHOCYTE [1]: 88.33%
- MEAN CORPUSCULAR HEMOGLOBIN [1]: 23.73 pg
- MEAN CORPUSCULAR HEMOGLOBIN CONCENTRATION [1]: 37.43 G/DL
- MEAN CORPUSCULAR VOLUME [1]: 63.4 fL
- MONOCYTE [1]: 2.83%
- NEUTROPHIL [1]: 7.17%
- NUCLEATED RED BLOOD CELLS [1]: 0 /100WBC
- PLATELET COUNT [1]: 1184.67 x10E3/uL
- ALANINE AMINOTRANSFERASE [1]: 45.33 u/L
- ALBUMIN [1]: 4.3 G/DL
- ALKALINE PHOSPHATASE [1]: 388.83 u/L
- ASPARTATE AMINOTRANSFERASE [1]: 84.83 u/L
- BLOOD UREA NITROGEN [1]: 15.5 mg/dL
- CARBON DIOXIDE [1]: 27 mmol/L
- CHLORIDE [1]: 101.8 MEQ/L
- CHOLESTEROL [1]: 76.67 mg/dL
- CREATINE PHOSPHOKINASE [1]: 301 u/L
- CREATININE [1]: 0.21 mg/dL
- GLUCOSE [1]: 168.83 mg/dL
- LACTATE DEHYDROGENASE [1]: 294.83 u/L
- LIPASE [1]: 9.8 u/L
- PHOSPHORUS [1]: 13.25 mg/dL
- POTASSIUM [1]: 6.41 MEQ/L
- SODIUM [1]: 143.72 MEQ/L
- TOTAL BILIRUBIN [1]: 0.22 mg/dL
- TOTAL PROTEIN [1]: 5.98 G/DL
- ABSOLUTE BASOPHIL [2]: 0 CELLS/uL
- ABSOLUTE EOSINOPHIL [2]: 190.67 CELLS/uL
- ABSOLUTE LYMPHOCYTE [2]: 12549.5 CELLS/uL
- ABSOLUTE MONOCYTE [2]: 276 CELLS/uL
- ABSOLUTE SEGMENTED NEUTROPHIL [2]: 1067.17 CELLS/uL
- BASOPHIL [2]: 0%
- EOSINOPHIL [2]: 1.33%
- ERYTHROCYTE COUNT [2]: 5.66 x10E6/uL
- HEMATOCRIT [2]: 35.92%
- HEMOGLOBIN [2]: 13.65 G/DL
- LEUKOCYTE COUNT [2]: 14.08 x10E3/uL
- LYMPHOCYTE [2]: 89%
- MEAN CORPUSCULAR HEMOGLOBIN [2]: 24.12 pg
- MEAN CORPUSCULAR HEMOGLOBIN CONCENTRATION [2]: 38.03 G/DL
- MEAN CORPUSCULAR VOLUME [2]: 63.47 fL
- MONOCYTE [2]: 2%
- NEUTROPHIL [2]: 7.67%
- NUCLEATED RED BLOOD CELLS [2]: 0.17 /100WBC
- PLATELET COUNT [2]: 1251.67 x10E3/uL
- ALANINE AMINOTRANSFERASE [2]: 43.33 u/L
- ALBUMIN [2]: 4.22 G/DL
- ALKALINE PHOSPHATASE [2]: 365.67 u/L
- ASPARTATE AMINOTRANSFERASE [2]: 83.67 u/L
- BLOOD UREA NITROGEN [2]: 18.17 mg/dL
- CARBON DIOXIDE [2]: 28.67 mmol/L
- CHLORIDE [2]: 103.5 MEQ/L
- CHOLESTEROL [2]: 71.5 mg/dL
- CREATINE PHOSPHOKINASE [2]: 284.5 u/L
- CREATININE [2]: 0.21 mg/dL
- GLUCOSE [2]: 161.67 mg/dL
- LACTATE DEHYDROGENASE [2]: 259.67 u/L
- LIPASE [2]: 9.5 u/L
- PHOSPHORUS [2]: 12.45 mg/dL
- POTASSIUM [2]: 6.49 MEQ/L
- SODIUM [2]: 144.25 MEQ/L
- TOTAL BILIRUBIN [2]: 0.2 mg/dL
- TOTAL PROTEIN [2]: 6.1 G/DL
- ABSOLUTE BASOPHIL [3]: 0 CELLS/uL
- ABSOLUTE EOSINOPHIL [3]: 47 CELLS/uL
- ABSOLUTE LYMPHOCYTE [3]: 6476.33 CELLS/uL
- ABSOLUTE MONOCYTE [3]: 108 CELLS/uL
- ABSOLUTE SEGMENTED NEUTROPHIL [3]: 402 CELLS/uL
- BASOPHIL [3]: 0%
- EOSINOPHIL [3]: 1%
- ERYTHROCYTE COUNT [3]: 5.55 x10E6/uL
- HEMATOCRIT [3]: 35.4%
- HEMOGLOBIN [3]: 13.17 G/DL
- LEUKOCYTE COUNT [3]: 7.03 x10E3/uL
- LYMPHOCYTE [3]: 91.67%
- MEAN CORPUSCULAR HEMOGLOBIN [3]: 23.73 pg
- MEAN CORPUSCULAR HEMOGLOBIN CONCENTRATION [3]: 37.2 G/DL
- MEAN CORPUSCULAR VOLUME [3]: 63.8 fL
- MONOCYTE [3]: 1.67%
- NEUTROPHIL [3]: 5.67%
- NUCLEATED RED BLOOD CELLS [3]: 0 /100WBC
- PLATELET COUNT [3]: 1224.33 x10E3/uL
- ALANINE AMINOTRANSFERASE [3]: 45.33 u/L
- ALBUMIN [3]: 4.27 G/DL
- ALKALINE PHOSPHATASE [3]: 484.33 u/L
- ASPARTATE AMINOTRANSFERASE [3]: 84.67 u/L
- BLOOD UREA NITROGEN [3]: 13.67 mg/dL
- CARBON DIOXIDE [3]: 28 mmol/L
- CHLORIDE [3]: 103 MEQ/L
- CHOLESTEROL [3]: 71 mg/dL
- CREATINE PHOSPHOKINASE [3]: 192.33 u/L
- CREATININE [3]: 0.18 mg/dL
- GLUCOSE [3]: 148.33 mg/dL
- LACTATE DEHYDROGENASE [3]: 120.67 u/L
- LIPASE [3]: 9.33 u/L
- PHOSPHORUS [3]: 12.27 mg/dL
- POTASSIUM [3]: 6.28 MEQ/L
- SODIUM [3]: 147.37 MEQ/L
- TOTAL BILIRUBIN [3]: 0.2 mg/dL
